Measurements reported in patent US4762823A, “Nucleosides of 5-monofluoromethyluracil and 5-difluoromethyluracil” (Sloan-Kettering Institute for Cancer Research, priority 1985, dated 1988).

Tests used:
HSV-2 = assay: Antiherpes activity, inhibition of cytopathic effect (CPE), HSV-2; assay type: cell-based; details: Human alphaherpesvirus 2, 48 h, human foreskin monolayers, mean IC of high and low virus inocula, CPE score lowered by 10 scoring units vs control, 2 days, read-out: Inhibitory Concentration (μM) HSV-2
Protocol: (§1) Each of the nucleosides was initially dissolved in a diluent containing 60% propylene glycol and 10% EtOH; subsequent dilutions used maintenance culture medium. Agents were assessed at tenfold dilutions with final concentrations ranging from 10,000 to 0.01 micromolar. Confluent human foreskin monolayers were maintained in 96-well microtiter plates using Eagle's Minimal Essential Medium supplemented with 2% fetal bovine serum, antibiotics and glutamine using standard methods.^40 Prior to virus inoculation, the medium was removed from each well and replaced with 100 μL of agent diluted in maintenance medium with differing concentrations in each horizontal row, beginning with the highest concentration in the upper row, with subsequent tenfold dilutions in the next rows and the last (control) row fed with agent-free maintenance medium. The virus inocula were then added, suspended in 100 μL of […] medium. A high-dose inoculum which induced nearly confluent (100%) cytopathic effect (CPE) two days later was added to the first five vertical columns of the plate (1-5) and, similarly, a low-dose inoculum inducing approximately 50% CPE in each well two days later was added to the next five vertical columns (6-10). To the last two columns, virus-free medium was added to serve as uninfected control wells in order to assess direct cellular cytotoxicity at each agent dilution. The plates were then incubated at 36.5° C. in 5% CO2 in air for two days, at which time they were read. The cytopathology of each well was read using an inverted microscope and scored from 0 to 4 (0=no CPE and 4=>95% CPE); for marginal or equivocal readings a+ or - is affixed to each score. […] The mean score of each five wells in a row receiving a given agent dilution and virus inoculum was then calculated and compared with an appropriate control row receiving no agent. […] When the value fell between two rows, simple arithmetic interpolation was done to calculate the agent concentrate at the point on a slope between the mean scores in the rows above and below this point. The IC values of each agent using the high and low virus inocula were then averaged yielding a final mean IC which was expressed as a micromolar drug concentration.

[1] = Direct cellular cytotoxicity in uninfected control wells; assay type: cell-based, human; details: foreskin cell monolayers; uninfected human foreskin monolayers; tenfold dilutions; 2 days; read-out: Toxic Concentration
Protocol: as §1

HSV-1 = assay: Antiherpes activity, inhibition of cytopathic effect (CPE), HSV-1; assay type: cell-based; details: Human alphaherpesvirus 1, 48 h, human foreskin monolayers, mean IC of high and low virus inocula, CPE score lowered by 10 scoring units vs control, 2 days, read-out: Inhibitory Concentration (μM) HSV-1
Protocol: as §1

[2] = system: human foreskin monolayers; assay: Direct cellular cytotoxicity in uninfected control wells; assay type: cell-based; details: statement in words on Table 1
Protocol: as §1

herpes = assay: Antiherpes activity; assay type: cell-based; details: statement in words on Table 1
Protocol: Each of the nucleosides was initially dissolved in a diluent containing 60% propylene glycol and 10% EtOH; subsequent dilutions used maintenance culture medium. Agents were assessed at tenfold dilutions with final concentrations ranging from 10,000 to 0.01 micromolar. […] The plates were then incubated at 36.5° C. in 5% CO2 in air for two days, at which time they were read. The cytopathology of each well was read using an inverted microscope and scored from 0 to 4 (0=no CPE and 4=>95% CPE); for marginal or equivocal readings a+ or - is affixed to each score. […] The mean score of each five wells in a row receiving a given agent dilution and virus inoculum was then calculated and compared with an appropriate control row receiving no agent. […] The IC values of each agent using the high and low virus inocula were then averaged yielding a final mean IC which was expressed as a micromolar drug concentration.

[3] = neutral aqueous media; Mertes, et al.; cited from earlier work
herpes simplex = details: cited from earlier work
many tumor systems = details: Heidelberger, 1965; 1970; cited from earlier work
[4] = cited from earlier work

Compound: CC(=O)OC[C@H]1O[C@@H](n2cc(C(F)F)c(=O)[nH]c2=O)[C@@H](F)[C@@H]1OC(C)=O [R=CHF2, R^1=Ac, X=F]
- IC (CPE score lowered by 10 units) (HSV-2): 2.16 µM
- MCC at 48 h [1]: 1 mM
- IC (CPE score lowered by 10 units) (HSV-1): 0.71 µM

Compound: CC(=O)OC[C@H]1O[C@@H](n2cc(CF)c(=O)[nH]c2=O)[C@@H](F)[C@@H]1OC(C)=O [R=CH2 F, R^1=Ac, X=F, 1-(3,5-Di-0-acetyl-2-deoxy-2-fluoro-β-D-arabinofuranosyl)-5-monofluoromethyluracil]
- IC (CPE score lowered by 10 units) (HSV-2): 5.19 µM
- MCC at 48 h [1]: 1 mM
- IC (CPE score lowered by 10 units) (HSV-1): 2.46 µM

Compound: O=c1[nH]c(=O)n([C@H]2C[C@H](O)[C@@H](CO)O2)cc1C(F)F [R=CHF2, R^1=H, X=H, 2'-Deoxy-5-difluoromethyluridine]
- IC (CPE score lowered by 10 units) (HSV-2): 1.66 µM
- cytotoxicity [2]: without serious cytotoxicity
- MCC at 48 h [1]: 1 mM
- IC (CPE score lowered by 10 units) (HSV-1): 1.4 µM
- antiherpes activity (herpes): very potent antiherpes activity

Compound: O=c1[nH]c(=O)n([C@H]2C[C@H](O)[C@@H](CO)O2)cc1CF [R=CH2 F, R^1=H, X=H, 2'-deoxy-5-monofluoromethyluridine]
- IC (CPE score lowered by 10 units) (HSV-2): > 100 µM
- MCC at 48 h [1]: 1 mM
- IC (CPE score lowered by 10 units) (HSV-1): > 100 µM

Compound: Cc1cn([C@@H]2O[C@H](CO)[C@@H](O)[C@@H]2F)c(=O)[nH]c1=O [FMAU, 1-(2-Deoxy-2-fluoro-β-D-arabinofuranosyl)thymine, reference compound]
- IC (CPE score lowered by 10 units) (HSV-2): 0.05 µM
- MCC at 48 h [1]: 1 mM
- IC (CPE score lowered by 10 units) (HSV-1): 0.1 µM

Compound: CC(=O)OC[C@H]1O[C@@H](n2cc(C)c(=O)[nH]c2=O)[C@@H](F)[C@@H]1OC(C)=O [R=CH3, R^1=Ac, X=F, 1-(3,5-di-0-acetyl-2-deoxy-2-fluoro-β-D-arabinofuranosyl)thymine, reference compound]
- IC (CPE score lowered by 10 units) (HSV-2): 1.23 µM
- MCC at 48 h [1]: 1 mM
- IC (CPE score lowered by 10 units) (HSV-1): 0.44 µM

Compound: O=c1[nH]c(=O)n([C@@H]2O[C@H](CO)[C@@H](O)[C@@H]2F)cc1CF [R=CH2 F, R^1=H, X=F, 1-(2'-Deoxy-2'-fluoro-β-D-arabinofuranosyl)-5-monofluoromethyluracil]
- IC (CPE score lowered by 10 units) (HSV-2): 0.18 µM
- MCC at 48 h [1]: 1 mM
- IC (CPE score lowered by 10 units) (HSV-1): 0.21 µM

Compound: CC(=O)OC[C@H]1O[C@@H](n2cc(C(F)F)c(=O)[nH]c2=O)C[C@@H]1OC(C)=O [R=CHF2, R^1=Ac, X=H, 1-(3',5'-Di-0-acetyl-2'-deoxy-β-D-erythropentofuranosyl)-5-difluoromethyluracil]
- IC (CPE score lowered by 10 units) (HSV-2): 25.1 µM
- cytotoxicity [2]: without serious cytotoxicity
- MCC at 48 h [1]: 1 mM
- IC (CPE score lowered by 10 units) (HSV-1): 17 µM
- antiherpes activity (herpes): very potent antiherpes activity

Compound: CC(=O)OC[C@H]1O[C@@H](n2cc(CF)c(=O)[nH]c2=O)C[C@@H]1OC(C)=O [R=CH2 F, R^1=Ac, X=H, 1-(3',5'-di-0-acetyl-β-D-erythropentofuranosyl)-5-monofluoromethyluracil]
- IC (CPE score lowered by 10 units) (HSV-2): > 100 µM
- MCC at 48 h [1]: 1 mM
- IC (CPE score lowered by 10 units) (HSV-1): > 100 µM

Compound: O=c1[nH]cc(C(F)F)c(=O)[nH]1 [5-Difluoromethyluracil]
- lability [3]: extremely labile in neutral aqueous media

Compound: O=c1[nH]c(=O)n([C@@H]2O[C@H](CO)[C@@H](O)[C@@H]2F)cc1C(F)F [R=CHF2, R^1=H, X=F, 1-(2'-Deoxy-2'-fluoro-β-D-arabinofuranosyl)-5-difluoromethyluracil]
- IC (CPE score lowered by 10 units) (HSV-2): 1.04 µM
- MCC at 48 h [1]: 1 mM
- IC (CPE score lowered by 10 units) (HSV-1): 0.48 µM

Compound: O=c1[nH]c(=O)n([C@H]2C[C@H](O)[C@@H](CO)O2)cc1C(F)(F)F [F3 TDR, 1-(2'-deoxy-β-D-erythropentofuranosyl)-5-trifluoromethyluracil]
- activity against herpes simplex (herpes simplex; Heidelberger, 1965, 1970): has shown activity
- antiherpetic (reported) (herpes simplex; reported): antiherpetic
- activity against many tumor systems (many tumor systems): has shown activity
- cytotoxic (reported) [4]: very cytotoxic
